Data published in patent publication US12049450B2, “Pyridyloxy-carboxylate derivative and preparation method therefor, herbicidal composition, and use” (Qingdao Kingagroot Chemical Compound Co., Ltd., priority 2018, dated 2024).

Assays:
Test in all cases: Post-emergence test experiment (greenhouse pot, spray at 2-3 leaf stage)
Format in all cases: in vivo
Details in all cases: 1000 g/ha; post-emergence spray at 2-3 leaf stage; assessed after 3 weeks; fresh weight inhibition rate
Galium spurium = tested on: Galium spurium
Summary of the method: (§1)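 Weed seeds sown in soil-filled pots in greenhouse, sprayed at 2-3 leaf stage (2 weeks after sowing) with compound in acetone/tween-80 plus methyl oleate emulsible concentrate (1.5 L/ha) diluted in water. Fresh-weight growth inhibition scored after 3 weeks on 0-5 scale (5: >85%, 0: <5%).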

Monochoria vaginalis = tested on: Monochoria vaginalis
Summary of the method: as §1

Abutilon theophrasti = tested on: Abutilon theophrasti
Summary of the method: as §1

Echinochloa crusgalli = tested on: Echinochloa crusgalli
Summary of the method: as §1

Digitaria sanguinalis = tested on: Digitaria sanguinalis
Summary of the method: as §1

CC(Oc1nc(F)c(Cl)c(N)c1Cl)C(=O)SCc1ccnnc1 (centres unmarked) [Compound 123]
Activity level (growth inhibition rate) Galium spurium (Galium spurium): 5 (Level 5: the growth inhibition rate is greater than 85%)
Activity level (growth inhibition rate) Monochoria Vaginalis (Monochoria vaginalis): 5 (Level 5: the growth inhibition rate is greater than 85%)
Activity level (growth inhibition rate) Abutilon theophrasti (Abutilon theophrasti): 5 (Level 5: the growth inhibition rate is greater than 85%)
Activity level (growth inhibition rate) Echinochloa crusgalli (Echinochloa crusgalli): 5 (Level 5: the growth inhibition rate is greater than 85%)
Activity level (growth inhibition rate) Digitaria sanguinalis (Digitaria sanguinalis): 5 (Level 5: the growth inhibition rate is greater than 85%)

CC(Oc1nc(F)c(Cl)c(N)c1Cl)C(=O)OCc1cncnc1 (centres unmarked) [Compound 124]
Activity level (growth inhibition rate) Galium spurium (Galium spurium): 5 (Level 5: the growth inhibition rate is greater than 85%)
Activity level (growth inhibition rate) Monochoria Vaginalis (Monochoria vaginalis): 5 (Level 5: the growth inhibition rate is greater than 85%)
Activity level (growth inhibition rate) Abutilon theophrasti (Abutilon theophrasti): 5 (Level 5: the growth inhibition rate is greater than 85%)
Activity level (growth inhibition rate) Echinochloa crusgalli (Echinochloa crusgalli): 5 (Level 5: the growth inhibition rate is greater than 85%)
Activity level (growth inhibition rate) Digitaria sanguinalis (Digitaria sanguinalis): 5 (Level 5: the growth inhibition rate is greater than 85%)

CC(Oc1nc(F)c(Cl)c(N)c1Cl)C(=O)SCCc1ccncn1 (centres unmarked) [Compound 125]
Activity level (growth inhibition rate) Galium spurium (Galium spurium): 5 (Level 5: the growth inhibition rate is greater than 85%)
Activity level (growth inhibition rate) Monochoria Vaginalis (Monochoria vaginalis): 5 (Level 5: the growth inhibition rate is greater than 85%)
Activity level (growth inhibition rate) Abutilon theophrasti (Abutilon theophrasti): 5 (Level 5: the growth inhibition rate is greater than 85%)
Activity level (growth inhibition rate) Echinochloa crusgalli (Echinochloa crusgalli): 5 (Level 5: the growth inhibition rate is greater than 85%)
Activity level (growth inhibition rate) Digitaria sanguinalis (Digitaria sanguinalis): 5 (Level 5: the growth inhibition rate is greater than 85%)

CC(Oc1nc(F)c(Cl)c(N)c1Cl)C(=O)OCc1ncncn1 (centres unmarked) [Compound 126]
Activity level (growth inhibition rate) Galium spurium (Galium spurium): 5 (Level 5: the growth inhibition rate is greater than 85%)
Activity level (growth inhibition rate) Monochoria Vaginalis (Monochoria vaginalis): 5 (Level 5: the growth inhibition rate is greater than 85%)
Activity level (growth inhibition rate) Abutilon theophrasti (Abutilon theophrasti): 5 (Level 5: the growth inhibition rate is greater than 85%)
Activity level (growth inhibition rate) Echinochloa crusgalli (Echinochloa crusgalli): 5 (Level 5: the growth inhibition rate is greater than 85%)
Activity level (growth inhibition rate) Digitaria sanguinalis (Digitaria sanguinalis): 5 (Level 5: the growth inhibition rate is greater than 85%)

Cc1cc(COC(=O)C(C)Oc2nc(F)c(Cl)c(N)c2Cl)n(C)n1 (centres unmarked) [Compound 127]
Activity level (growth inhibition rate) Galium spurium (Galium spurium): 5 (Level 5: the growth inhibition rate is greater than 85%)
Activity level (growth inhibition rate) Monochoria Vaginalis (Monochoria vaginalis): 5 (Level 5: the growth inhibition rate is greater than 85%)
Activity level (growth inhibition rate) Abutilon theophrasti (Abutilon theophrasti): 5 (Level 5: the growth inhibition rate is greater than 85%)
Activity level (growth inhibition rate) Echinochloa crusgalli (Echinochloa crusgalli): 5 (Level 5: the growth inhibition rate is greater than 85%)
Activity level (growth inhibition rate) Digitaria sanguinalis (Digitaria sanguinalis): 5 (Level 5: the growth inhibition rate is greater than 85%)

CC(Oc1nc(F)c(Cl)c(N)c1Cl)C(=O)OCc1cn(C)cn1 (centres unmarked) [Compound 129]
Activity level (growth inhibition rate) Galium spurium (Galium spurium): 5 (Level 5: the growth inhibition rate is greater than 85%)
Activity level (growth inhibition rate) Monochoria Vaginalis (Monochoria vaginalis): 5 (Level 5: the growth inhibition rate is greater than 85%)
Activity level (growth inhibition rate) Abutilon theophrasti (Abutilon theophrasti): 5 (Level 5: the growth inhibition rate is greater than 85%)
Activity level (growth inhibition rate) Echinochloa crusgalli (Echinochloa crusgalli): 5 (Level 5: the growth inhibition rate is greater than 85%)
Activity level (growth inhibition rate) Digitaria sanguinalis (Digitaria sanguinalis): 5 (Level 5: the growth inhibition rate is greater than 85%)

CC(Oc1nc(F)c(Cl)c(N)c1Cl)C(=O)OCc1nccn1C (centres unmarked) [Compound 130]
Activity level (growth inhibition rate) Galium spurium (Galium spurium): 5 (Level 5: the growth inhibition rate is greater than 85%)
Activity level (growth inhibition rate) Monochoria Vaginalis (Monochoria vaginalis): 5 (Level 5: the growth inhibition rate is greater than 85%)
Activity level (growth inhibition rate) Abutilon theophrasti (Abutilon theophrasti): 5 (Level 5: the growth inhibition rate is greater than 85%)
Activity level (growth inhibition rate) Echinochloa crusgalli (Echinochloa crusgalli): 5 (Level 5: the growth inhibition rate is greater than 85%)
Activity level (growth inhibition rate) Digitaria sanguinalis (Digitaria sanguinalis): 5 (Level 5: the growth inhibition rate is greater than 85%)

CC(Oc1nc(F)c(Cl)c(N)c1Cl)C(=O)OCc1cncn1C (centres unmarked) [Compound 131]
Activity level (growth inhibition rate) Galium spurium (Galium spurium): 5 (Level 5: the growth inhibition rate is greater than 85%)
Activity level (growth inhibition rate) Monochoria Vaginalis (Monochoria vaginalis): 5 (Level 5: the growth inhibition rate is greater than 85%)
Activity level (growth inhibition rate) Abutilon theophrasti (Abutilon theophrasti): 5 (Level 5: the growth inhibition rate is greater than 85%)
Activity level (growth inhibition rate) Echinochloa crusgalli (Echinochloa crusgalli): 5 (Level 5: the growth inhibition rate is greater than 85%)
Activity level (growth inhibition rate) Digitaria sanguinalis (Digitaria sanguinalis): 5 (Level 5: the growth inhibition rate is greater than 85%)

CC(Oc1nc(F)c(Cl)c(N)c1Cl)C(=O)SCc1ccnn1C (centres unmarked) [Compound 132]
Activity level (growth inhibition rate) Galium spurium (Galium spurium): 5 (Level 5: the growth inhibition rate is greater than 85%)
Activity level (growth inhibition rate) Monochoria Vaginalis (Monochoria vaginalis): 5 (Level 5: the growth inhibition rate is greater than 85%)
Activity level (growth inhibition rate) Abutilon theophrasti (Abutilon theophrasti): 5 (Level 5: the growth inhibition rate is greater than 85%)
Activity level (growth inhibition rate) Echinochloa crusgalli (Echinochloa crusgalli): 5 (Level 5: the growth inhibition rate is greater than 85%)
Activity level (growth inhibition rate) Digitaria sanguinalis (Digitaria sanguinalis): 5 (Level 5: the growth inhibition rate is greater than 85%)

CCCn1cc(CCOC(=O)C(C)Oc2nc(F)c(Cl)c(N)c2Cl)cn1 (centres unmarked) [Compound 133]
Activity level (growth inhibition rate) Galium spurium (Galium spurium): 5 (Level 5: the growth inhibition rate is greater than 85%)
Activity level (growth inhibition rate) Monochoria Vaginalis (Monochoria vaginalis): 5 (Level 5: the growth inhibition rate is greater than 85%)
Activity level (growth inhibition rate) Abutilon theophrasti (Abutilon theophrasti): 5 (Level 5: the growth inhibition rate is greater than 85%)
Activity level (growth inhibition rate) Echinochloa crusgalli (Echinochloa crusgalli): 5 (Level 5: the growth inhibition rate is greater than 85%)
Activity level (growth inhibition rate) Digitaria sanguinalis (Digitaria sanguinalis): 5 (Level 5: the growth inhibition rate is greater than 85%)

CC(Oc1nc(F)c(Cl)c(N)c1Cl)C(=O)SCc1nncn1C (centres unmarked) [Compound 134]
Activity level (growth inhibition rate) Galium spurium (Galium spurium): 5 (Level 5: the growth inhibition rate is greater than 85%)
Activity level (growth inhibition rate) Monochoria Vaginalis (Monochoria vaginalis): 5 (Level 5: the growth inhibition rate is greater than 85%)
Activity level (growth inhibition rate) Abutilon theophrasti (Abutilon theophrasti): 5 (Level 5: the growth inhibition rate is greater than 85%)
Activity level (growth inhibition rate) Echinochloa crusgalli (Echinochloa crusgalli): 5 (Level 5: the growth inhibition rate is greater than 85%)
Activity level (growth inhibition rate) Digitaria sanguinalis (Digitaria sanguinalis): 5 (Level 5: the growth inhibition rate is greater than 85%)

CC(Oc1nc(F)c(Cl)c(N)c1Cl)C(=O)OCCc1cnn[nH]1 (centres unmarked) [Compound 135]
Activity level (growth inhibition rate) Galium spurium (Galium spurium): 5 (Level 5: the growth inhibition rate is greater than 85%)
Activity level (growth inhibition rate) Monochoria Vaginalis (Monochoria vaginalis): 5 (Level 5: the growth inhibition rate is greater than 85%)
Activity level (growth inhibition rate) Abutilon theophrasti (Abutilon theophrasti): 5 (Level 5: the growth inhibition rate is greater than 85%)
Activity level (growth inhibition rate) Echinochloa crusgalli (Echinochloa crusgalli): 5 (Level 5: the growth inhibition rate is greater than 85%)
Activity level (growth inhibition rate) Digitaria sanguinalis (Digitaria sanguinalis): 5 (Level 5: the growth inhibition rate is greater than 85%)

CC(Oc1nc(F)c(Cl)c(N)c1Cl)C(=O)OCn1cncn1 (centres unmarked) [Compound 136]
Activity level (growth inhibition rate) Galium spurium (Galium spurium): 5 (Level 5: the growth inhibition rate is greater than 85%)
Activity level (growth inhibition rate) Monochoria Vaginalis (Monochoria vaginalis): 5 (Level 5: the growth inhibition rate is greater than 85%)
Activity level (growth inhibition rate) Abutilon theophrasti (Abutilon theophrasti): 5 (Level 5: the growth inhibition rate is greater than 85%)
Activity level (growth inhibition rate) Echinochloa crusgalli (Echinochloa crusgalli): 5 (Level 5: the growth inhibition rate is greater than 85%)
Activity level (growth inhibition rate) Digitaria sanguinalis (Digitaria sanguinalis): 5 (Level 5: the growth inhibition rate is greater than 85%)
